Results reported in PubChem BioAssay AID1259407 (Chemical Carcinogenesis Research Information System (CCRIS), 2018).
Active and inactive are the calls of the source. The rule behind the calls is not given here.

System: CCRIS mutagenicity, Ames/micronucleus/aberration tests
Test: CCRIS mutagenicity studies
[1] = Test System: AMES SALMONELLA TYPHIMURIUM, Strain/Indicator: TA98, Metabolic Activation: HAMSTER, LIVER, S-9, AROCLOR 1254 (10%), Method: PREINCUBATION
[2] = Test System: AMES SALMONELLA TYPHIMURIUM, Strain/Indicator: TA98, Metabolic Activation: NONE, Method: PREINCUBATION
[3] = Test System: AMES SALMONELLA TYPHIMURIUM, Strain/Indicator: TA98, Metabolic Activation: RAT, LIVER, S-9, AROCLOR 1254 (10%), Method: PREINCUBATION
[4] = Test System: AMES SALMONELLA TYPHIMURIUM, Strain/Indicator: TA100, Metabolic Activation: HAMSTER, LIVER, S-9, AROCLOR 1254 (10%), Method: PREINCUBATION
[5] = Test System: AMES SALMONELLA TYPHIMURIUM, Strain/Indicator: TA100, Metabolic Activation: NONE, Method: PREINCUBATION
[6] = Test System: AMES SALMONELLA TYPHIMURIUM, Strain/Indicator: TA100, Metabolic Activation: RAT, LIVER, S-9, AROCLOR 1254 (10%), Method: PREINCUBATION
[7] = Test System: AMES SALMONELLA TYPHIMURIUM, Strain/Indicator: TA1535, Metabolic Activation: HAMSTER, LIVER, S-9, AROCLOR 1254 (10%), Method: PREINCUBATION
[8] = Test System: AMES SALMONELLA TYPHIMURIUM, Strain/Indicator: TA1535, Metabolic Activation: NONE, Method: PREINCUBATION
[9] = Test System: AMES SALMONELLA TYPHIMURIUM, Strain/Indicator: TA1535, Metabolic Activation: RAT, LIVER, S-9, AROCLOR 1254 (10%), Method: PREINCUBATION
[10] = Test System: AMES SALMONELLA TYPHIMURIUM, Strain/Indicator: TA1537, Metabolic Activation: HAMSTER, LIVER, S-9, AROCLOR 1254 (10%), Method: PREINCUBATION
[11] = Test System: AMES SALMONELLA TYPHIMURIUM, Strain/Indicator: TA1537, Metabolic Activation: NONE, Method: PREINCUBATION
[12] = Test System: AMES SALMONELLA TYPHIMURIUM, Strain/Indicator: TA1537, Metabolic Activation: RAT, LIVER, S-9, AROCLOR 1254 (10%), Method: PREINCUBATION

Compound	mutagenic call [1]	mutagenic call [2]	mutagenic call [3]	mutagenic call [4]	mutagenic call [5]	mutagenic call [6]	mutagenic call [7]	mutagenic call [8]	mutagenic call [9]	mutagenic call [11]	further results
CCCCCCC(C)COC(=O)c1ccccc1C(=O)OCC(C)CCCCCC (stereo not given)	inactive; negative	inactive; negative	inactive; negative	inactive; negative	inactive; negative	inactive; negative	inactive; negative	inactive; negative	inactive; negative	inactive; negative	mutagenic call (Test System: AMES SALMONELLA TYPHIMURIUM, Strain/Indicator: TA98, Metabolic Activation: RAT LIVER S-9, AROCLOR, Method: PREINCUBATION): inactive; negative; mutagenic call (Test System: AMES SALMONELLA TYPHIMURIUM, Strain/Indicator: TA100, Metabolic Activation: RAT LIVER S-9, AROCLOR, Method: PREINCUBATION): inactive; negative; mutagenic call (Test System: AMES SALMONELLA TYPHIMURIUM, Strain/Indicator: TA1535, Metabolic Activation: RAT LIVER S-9, AROCLOR, Method: PREINCUBATION): inactive; negative; mutagenic call [10]: inactive; negative; mutagenic call (Test System: AMES SALMONELLA TYPHIMURIUM, Strain/Indicator: TA1537, Metabolic Activation: RAT LIVER S-9, AROCLOR, Method: PREINCUBATION): inactive; negative; mutagenic call [12]: inactive; negative; mutagenic call (Test System: MOUSE LYMPHOMA, Strain/Indicator: L5178Y (TK+/TK-), Metabolic Activation: NONE, Method: SUSPENSION/PLATE): inactive; negative; mutagenic call (Test System: MOUSE LYMPHOMA, Strain/Indicator: L5178Y (TK+/TK-), Metabolic Activation: RAT LIVER S-9, Method: SUSPENSION/PLATE): inactive; negative
[Br][Pb][Br]											mutagenic call (Test System: AMES SALMONELLA TYPHIMURIUM, Strain/Indicator: TA1535, Metabolic Activation: NONE): active; positive; mutagenic call (Test System: AMES SALMONELLA TYPHIMURIUM, Strain/Indicator: TA1537, Metabolic Activation: NONE): inactive; negative
CC(C)(C)C1=CC(=O)C=C(C2=CC(=O)C=C(C(C)(C)C)C2=O)C1=O		active; positive			active; positive						
CC(C)CCC[C@@H](C)[C@H]1CC[C@H]2[C@@H]3CC=C4C[C@@H](OC(=O)Cc5ccc(N(CCCl)CCCl)cc5)CC[C@]4(C)[C@H]3CC[C@]12C	inactive; negative	inactive; negative	inactive; negative	inactive; negative	inactive; negative	inactive; negative	inactive; negative	inactive; negative	inactive; negative	inactive; negative	mutagenic call [10]: inactive; negative; mutagenic call [12]: inactive; negative
Nc1ccccc1C(=O)OC1CCCCC1	inactive; negative	inactive; negative	inactive; negative	inactive; negative	inactive; negative	inactive; negative	inactive; negative	inactive; negative	inactive; negative		mutagenic call (Test System: AMES SALMONELLA TYPHIMURIUM, Strain/Indicator: TA97, Metabolic Activation: HAMSTER, LIVER, S-9, AROCLOR 1254 (10%), Method: PREINCUBATION): inactive; negative; mutagenic call (Test System: AMES SALMONELLA TYPHIMURIUM, Strain/Indicator: TA97, Metabolic Activation: HAMSTER, LIVER, S-9, AROCLOR 1254 (30%), Method: PREINCUBATION): inactive; negative; mutagenic call (Test System: AMES SALMONELLA TYPHIMURIUM, Strain/Indicator: TA97, Metabolic Activation: NONE, Method: PREINCUBATION): inactive; negative; mutagenic call (Test System: AMES SALMONELLA TYPHIMURIUM, Strain/Indicator: TA97, Metabolic Activation: RAT, LIVER, S-9, AROCLOR 1254 (10%), Method: PREINCUBATION): inactive; negative; mutagenic call (Test System: AMES SALMONELLA TYPHIMURIUM, Strain/Indicator: TA97, Metabolic Activation: RAT, LIVER, S-9, AROCLOR 1254 (30%), Method: PREINCUBATION): inactive; negative; mutagenic call (Test System: AMES SALMONELLA TYPHIMURIUM, Strain/Indicator: TA98, Metabolic Activation: HAMSTER, LIVER, S-9, AROCLOR 1254 (30%), Method: PREINCUBATION): inactive; negative; mutagenic call (Test System: AMES SALMONELLA TYPHIMURIUM, Strain/Indicator: TA98, Metabolic Activation: RAT, LIVER, S-9, AROCLOR 1254 (30%), Method: PREINCUBATION): inactive; negative; mutagenic call (Test System: AMES SALMONELLA TYPHIMURIUM, Strain/Indicator: TA100, Metabolic Activation: HAMSTER, LIVER, S-9, AROCLOR 1254 (30%), Method: PREINCUBATION): inactive; negative; mutagenic call (Test System: AMES SALMONELLA TYPHIMURIUM, Strain/Indicator: TA100, Metabolic Activation: RAT, LIVER, S-9, AROCLOR 1254 (30%), Method: PREINCUBATION): inactive; negative; mutagenic call (Test System: AMES SALMONELLA TYPHIMURIUM, Strain/Indicator: TA1535, Metabolic Activation: HAMSTER, LIVER, S-9, AROCLOR 1254 (30%), Method: PREINCUBATION): inactive; negative; mutagenic call (Test System: AMES SALMONELLA TYPHIMURIUM, Strain/Indicator: TA1535, Metabolic Activation: RAT, LIVER, S-9, AROCLOR 1254 (30%), Method: PREINCUBATION): inactive; negative
O=NN1CN2CN(C1)CN(N=O)C2		inactive; negative			active; positive			inactive; negative		inactive; negative	mutagenic call (End Point: IN VITRO CHROMOSOMAL ABERRATIONS, Test System: CHL CELLS, Metabolic Activation: RAT, LIVER, S-9, SODIUM PHENOBARBITAL AND 5,6-BENZOFLAVONE): active; positive (structural and ploidy changes); mutagenic call (Test System: AMES SALMONELLA TYPHIMURIUM, Strain/Indicator: TA98, Metabolic Activation: RAT LIVER S-9, PHENOBARBITAL AND BETA-NAPHTHOFLAVONE, Method: PREINCUBATION): inactive; negative; mutagenic call (Test System: AMES SALMONELLA TYPHIMURIUM, Strain/Indicator: TA100, Metabolic Activation: RAT LIVER S-9, PHENOBARBITAL AND BETA-NAPHTHOFLAVONE, Method: PREINCUBATION): active; positive; mutagenic call (Test System: AMES SALMONELLA TYPHIMURIUM, Strain/Indicator: TA1535, Metabolic Activation: RAT LIVER S-9, PHENOBARBITAL AND BETA-NAPHTHOFLAVONE, Method: PREINCUBATION): inactive; negative; mutagenic call (Test System: AMES SALMONELLA TYPHIMURIUM, Strain/Indicator: TA1537, Metabolic Activation: RAT LIVER S-9, PHENOBARBITAL AND BETA-NAPHTHOFLAVONE, Method: PREINCUBATION): inactive; negative; mutagenic call (Test System: AMES SALMONELLA TYPHIMURIUM, Strain/Indicator: TA1538, Metabolic Activation: NONE, Method: PREINCUBATION): inactive; negative; mutagenic call (Test System: AMES SALMONELLA TYPHIMURIUM, Strain/Indicator: TA1538, Metabolic Activation: RAT LIVER S-9, PHENOBARBITAL AND BETA-NAPHTHOFLAVONE, Method: PREINCUBATION): inactive; negative; mutagenic call (Test System: E.COLI, Strain/Indicator: WP2UVRA, Metabolic Activation: NONE, Method: PREINCUBATION): inactive; negative; mutagenic call (Test System: E.COLI, Strain/Indicator: WP2UVRA, Metabolic Activation: RAT LIVER S-9, PHENOBARBITAL AND BETA-NAPHTHOFLAVONE, Method: PREINCUBATION): active; positive
O=C(O)/C(Cl)=C(/CCl)C(=O)O		inactive; negative			inactive; negative						mutagenic call (Test System: AMES SALMONELLA TYPHIMURIUM, Strain/Indicator: TA104, Metabolic Activation: NONE, Method: PREINCUBATION): inactive; negative
